For experiment [1], the species on record is Bos taurus. Kind of experiment: Inhibition of bovine liver beta-glucosidase assessed as reduction of p-nitrophenol release using p-nitrophenyl glycoside as substrate at 1000 uM by spectrophotometric analysis relative to control.
A short description of experiment [2]: Inhibition of bovine liver beta-glucuronidase assessed as reduction of p-nitrophenol release using p-nitrophenyl-glycoside as substrate by spectrophotometric analysis. On the set-up: species or system Bos taurus.
A short description of experiment [3]: Inhibition of human lysosomal beta-glucosidase assessed as reduction of p-nitrophenol release using p-nitrophenyl glycoside as substrate by spectrophotometric analysis.
A short description of experiment [4]: Inhibition of rice alpha-glucosidase assessed as reduction of p-nitrophenol release using p-nitrophenyl glycoside as substrate by spectrophotometric analysis. On the set-up: species or system Oryza sativa.
In experiment [5] the target is T1, Alpha-mannosidase (Canavalia ensiformis) (UniProt C0HJB3).
T1 sequence (whole entry): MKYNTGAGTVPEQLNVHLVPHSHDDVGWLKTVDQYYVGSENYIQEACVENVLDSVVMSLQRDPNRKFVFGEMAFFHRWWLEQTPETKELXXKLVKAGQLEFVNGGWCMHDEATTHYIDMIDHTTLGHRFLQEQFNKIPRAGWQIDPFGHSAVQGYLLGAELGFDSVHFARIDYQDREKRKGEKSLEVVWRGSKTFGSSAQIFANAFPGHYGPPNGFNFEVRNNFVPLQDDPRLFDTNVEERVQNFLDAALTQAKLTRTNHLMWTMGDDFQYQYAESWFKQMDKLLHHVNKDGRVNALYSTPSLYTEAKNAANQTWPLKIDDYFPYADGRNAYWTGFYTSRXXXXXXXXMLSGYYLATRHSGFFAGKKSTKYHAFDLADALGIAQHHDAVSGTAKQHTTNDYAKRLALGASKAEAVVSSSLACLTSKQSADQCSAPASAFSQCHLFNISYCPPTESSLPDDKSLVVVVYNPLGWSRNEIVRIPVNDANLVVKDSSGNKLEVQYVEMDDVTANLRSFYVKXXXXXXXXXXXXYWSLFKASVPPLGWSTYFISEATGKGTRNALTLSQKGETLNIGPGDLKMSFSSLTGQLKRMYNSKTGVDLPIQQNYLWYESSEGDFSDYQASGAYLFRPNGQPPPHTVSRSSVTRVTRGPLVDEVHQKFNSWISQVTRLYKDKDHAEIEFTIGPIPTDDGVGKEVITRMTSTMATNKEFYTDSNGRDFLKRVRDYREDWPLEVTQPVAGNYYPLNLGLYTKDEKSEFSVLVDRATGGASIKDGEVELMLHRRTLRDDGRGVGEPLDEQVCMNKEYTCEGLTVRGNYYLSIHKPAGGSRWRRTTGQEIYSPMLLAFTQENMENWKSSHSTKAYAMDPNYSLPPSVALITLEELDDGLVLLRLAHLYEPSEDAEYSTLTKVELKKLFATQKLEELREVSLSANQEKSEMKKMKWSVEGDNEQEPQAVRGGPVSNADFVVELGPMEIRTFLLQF
Description: Inhibition of jack bean alpha-mannosidase assessed as reduction of p-nitrophenol release using p-nitrophenyl glycoside as substrate at 1000 uM by spectrophotometric analysis relative to control.

A further experiment is filed under the species Sus scrofa. Description: Inhibition of porcine kidney alpha/alpha-trehalase assessed as reduction of p-nitrophenol release using p-nitrophenyl glycoside as substrate at 1000 uM by spectrophotometric analysis relative to control.
A further experiment relates to Penicillium decumbens. Kind of experiment: Inhibition of Penicillium decumbens alpha-L-rhamnosidase assessed as reduction of p-nitrophenol release using p-nitrophenyl-glycoside as substrate at 1000 uM by spectrophotometric analysis relative to control.
For experiment [6], the target named is T2, Tissue alpha-L-fucosidase (Bos taurus) (UniProt Q2KIM0).
T2 sequence (whole entry): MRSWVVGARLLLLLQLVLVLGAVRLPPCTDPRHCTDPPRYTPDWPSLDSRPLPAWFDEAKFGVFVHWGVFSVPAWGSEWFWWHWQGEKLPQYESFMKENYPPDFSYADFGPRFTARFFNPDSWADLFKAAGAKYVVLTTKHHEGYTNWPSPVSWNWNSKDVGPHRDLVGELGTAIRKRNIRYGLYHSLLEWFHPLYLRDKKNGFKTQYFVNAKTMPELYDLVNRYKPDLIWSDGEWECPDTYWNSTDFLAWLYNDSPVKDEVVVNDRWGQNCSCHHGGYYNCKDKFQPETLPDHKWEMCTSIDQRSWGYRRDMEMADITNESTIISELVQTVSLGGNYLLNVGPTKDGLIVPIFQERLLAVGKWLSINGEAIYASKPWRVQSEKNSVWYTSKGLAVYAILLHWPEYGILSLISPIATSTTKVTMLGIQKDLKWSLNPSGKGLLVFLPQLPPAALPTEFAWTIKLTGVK
Kind of experiment: Inhibition of bovine kidney alpha-L-fucosidase assessed as reduction of p-nitrophenol release using p-nitrophenyl glycoside as substrate at 1000 uM by spectrophotometric analysis relative to control.

Experiment [7] addresses Alpha-glucosidase (Saccharomyces cerevisiae S288c) (UniProt P53341+P38158+P07265). Description: Inhibition of yeast alpha-glucosidase assessed as reduction of p-nitrophenol release using p-nitrophenyl glycoside as substrate at 1000 uM by spectrophotometric analysis relative to control. Type of experiment: protein assay.
The target in experiment [8] is Beta-glucuronidase (Escherichia coli (strain K12)) (UniProt P05804). Kind of experiment: Inhibition of Escherichia coli beta-glucuronidase assessed as reduction of p-nitrophenol release using p-nitrophenyl-glycoside as substrate at 1000 uM by spectrophotometric analysis relative to control.
Beta-glucuronidase (Escherichia coli (strain K12)), sequence (P05804 whole entry, looked up): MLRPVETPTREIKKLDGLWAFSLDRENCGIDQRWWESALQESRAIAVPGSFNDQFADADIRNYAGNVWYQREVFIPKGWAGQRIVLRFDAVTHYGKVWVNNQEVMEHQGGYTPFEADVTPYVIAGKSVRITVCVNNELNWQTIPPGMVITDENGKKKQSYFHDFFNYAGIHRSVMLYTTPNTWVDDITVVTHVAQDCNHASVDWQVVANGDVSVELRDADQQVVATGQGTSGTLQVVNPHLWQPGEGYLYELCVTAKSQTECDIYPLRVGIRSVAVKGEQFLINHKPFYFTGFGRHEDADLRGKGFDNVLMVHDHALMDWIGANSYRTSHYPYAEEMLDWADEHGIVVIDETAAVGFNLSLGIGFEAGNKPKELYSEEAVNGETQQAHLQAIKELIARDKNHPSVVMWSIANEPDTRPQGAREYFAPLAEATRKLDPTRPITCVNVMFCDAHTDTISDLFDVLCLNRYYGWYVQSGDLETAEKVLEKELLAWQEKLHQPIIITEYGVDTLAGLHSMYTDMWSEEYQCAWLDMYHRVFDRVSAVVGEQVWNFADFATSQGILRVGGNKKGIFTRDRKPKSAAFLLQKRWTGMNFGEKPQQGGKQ
Experiment [9] has as its target Alpha-galactosidase (Coffea arabica) (UniProt Q42656). Kind of experiment: Inhibition of coffee beans alpha-galactosidase assessed as reduction of p-nitrophenol release using p-nitrophenyl glycoside as substrate at 1000 uM by spectrophotometric analysis relative to control.
A further experiment deals with Aspergillus niger. Kind of experiment: Inhibition of Aspergillus niger amyloglucosidase assessed as reduction of p-nitrophenol release using p-nitrophenyl-glycoside as substrate at 1000 uM by spectrophotometric analysis relative to control.
The subject of a further experiment is Helix pomatia. Kind of experiment: Inhibition of snail beta-mannosidase assessed as reduction of p-nitrophenol release using p-nitrophenyl glycoside as substrate at 1000 uM by spectrophotometric analysis relative to control.
Experiment [10] can be described thus: Inhibition of bovine liver beta-galactosidase assessed as reduction of p-nitrophenol release using p-nitrophenyl glycoside as substrate by spectrophotometric analysis. On the set-up: species or system Bos taurus.
For a further experiment, the system named is Prunus dulcis. Kind of experiment: Inhibition of almond beta-glucosidase assessed as reduction of p-nitrophenol release using p-nitrophenyl glycoside as substrate at 1000 uM by spectrophotometric analysis relative to control.
Experiment [11] can be described thus: Inhibition of rat intestinal maltase assessed as D-glucose release using maltose as substrate at pH 6.8 by colorimetric method.
Experiment [12] in a line: Inhibition of Penicillium decumbens alpha-L-rhamnosidase assessed as reduction of p-nitrophenol release using p-nitrophenyl-glycoside as substrate by spectrophotometric analysis.
A short description of experiment [13]: Inhibition of bovine liver beta-glucosidase assessed as reduction of p-nitrophenol release using p-nitrophenyl glycoside as substrate by spectrophotometric analysis. On the set-up: species or system Bos taurus.
The target of another experiment is Beta-glucuronidase (Escherichia coli (strain K12), UniProt P05804). Description: Inhibition of Escherichia coli beta-glucuronidase assessed as reduction of p-nitrophenol release using p-nitrophenyl-glycoside as substrate by spectrophotometric analysis.
Beta-glucuronidase, sequence (P05804 whole entry): as the sequence (P05804 whole entry, looked up) above
The species named for experiment [14] is Bos taurus. Description: Inhibition of bovine liver beta-glucuronidase assessed as reduction of p-nitrophenol release using p-nitrophenyl-glycoside as substrate at 1000 uM by spectrophotometric analysis relative to control.
In a further experiment the target is Alpha-glucosidase (Saccharomyces cerevisiae S288c, UniProt P53341+P38158+P07265). Kind of experiment: Inhibition of yeast alpha-glucosidase assessed as reduction of p-nitrophenol release using p-nitrophenyl glycoside as substrate by spectrophotometric analysis. Type of experiment: protein assay.
Experiment [15] is described as follows: Inhibition of almond beta-glucosidase assessed as reduction of p-nitrophenol release using p-nitrophenyl glycoside as substrate by spectrophotometric analysis. On the set-up: species or system Prunus dulcis.
Experiment [16] concerns the target T3, Tissue alpha-L-fucosidase (Bos taurus, UniProt Q2KIM0).
T3 sequence (Q2KIM0 whole entry): T2 sequence (whole entry)
Kind of experiment: Inhibition of bovine kidney alpha-L-fucosidase assessed as reduction of p-nitrophenol release using p-nitrophenyl glycoside as substrate by spectrophotometric analysis.

Experiment [17] is described as follows: Inhibition of human beta-glucosidase.

pIC50: −log10 of the molar value.

Alpha-galactosidase (Coffea arabica), sequence (Q42656 16-378 limits assumed): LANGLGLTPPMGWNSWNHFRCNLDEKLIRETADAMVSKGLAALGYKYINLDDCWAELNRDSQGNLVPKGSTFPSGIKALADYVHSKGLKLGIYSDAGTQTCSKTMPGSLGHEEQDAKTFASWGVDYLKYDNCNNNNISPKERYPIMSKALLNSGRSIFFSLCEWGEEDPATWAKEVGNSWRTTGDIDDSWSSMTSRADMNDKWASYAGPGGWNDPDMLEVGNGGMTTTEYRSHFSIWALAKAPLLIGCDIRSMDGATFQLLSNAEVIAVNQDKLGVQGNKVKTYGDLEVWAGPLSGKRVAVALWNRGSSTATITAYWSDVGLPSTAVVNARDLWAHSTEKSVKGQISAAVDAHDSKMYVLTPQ

The term inhibition denotes the share of the control response that was lost under treatment. One may read the pIC50 as −log10 of the IC50, conventionally taken in molar units. As for `Cc1ccc(CCCCCC[C@@H](O)[C@@H]2N[C@@H](CO)[C@H](O)[C@H]2O)cc1`, the inhibition in the experiment listed under Bos taurus [1] worked out at 45.4%; in experiment [5], 9.3%; in the experiment listed under Sus scrofa, 0%; in the experiment on Penicillium decumbens, 2.1%; in experiment [6], 0%; in experiment [7], 37.6%. Also, the inhibition in experiment [8] came to 24.5%; in [9] it was 1.6%; with Aspergillus niger, 11.3%; in the experiment on Helix pomatia it was 0%; in the experiment with Prunus dulcis it was 14.7%. For the same molecule, the pIC50 in experiment [2] was 4.19; in experiment [3], 4.60; in experiment [4], 4.20; in experiment [10], 4.34; in experiment [11] it was 4.89.

The term IC50 denotes the point on the concentration scale where inhibition reaches its midpoint. In the case of `Cl.OC[C@@H]1N[C@@H](CCCCCCCc2ccccc2)[C@H](O)[C@H]1O`, the pIC50 in [12] is 3.39; in experiment [13], 3.52; in [4], 4.96; on Beta-glucuronidase, 3.88; in experiment [10], 4.80; in experiment [15] it was 3.69. Moreover, the pIC50 in experiment [16] is 4.04; in [11] it was 5.72. Also, the inhibition in experiment [5] was 14.7%; in the experiment listed under Sus scrofa, 5.6%; in [9], 12.1%; in the experiment on Aspergillus niger, 7.2%; in the experiment on Helix pomatia, 6.7%; in the experiment listed under Bos taurus [14] it was 41.5%. Moreover, the half-maximal inhibitory concentration (IC50) at Alpha-glucosidase was determined as 802 µM.

The molecule `CCCCCCCCCCCCCC1N[C@H](CO)[C@@H](O)[C@@H]1O` (some centres not stated) had a pIC50 in experiment [17] of 6.11.

Values taken from ChEMBL document CHEMBL5331098, “Nanomolar β-glucosidase and β-galactosidase inhibition by enantiomeric α-1-C-alkyl-1,4-dideoxy-1,4-imino-arabinitol derivatives” (Eur J Med Chem, 2023).
